In patent US20250296959A1, “B7-H3 TARGETING PEPTIDES AND CONSTRUCTS THEREOF” (Mariana Oncology Inc., priority 2024, published 2025):
Starred links: 1 amine or outer side, 2 acyl side, 3 side chain; linkers in the order of their positions; H or OH if unused. Positions of bridges follow the written chain, without caps; N, C: chain ends. Non-standard residues stand in square brackets, D forms with d. Residues, ends and D or L forms follow the SMILES beside them. Groups on a side chain read outwards from the residue. *: point of attachment. Ala(piperidin-4-yl) = O=C([C@H](CC1CCN([*:3])CC1)N[*:1])[*:2]; DOTA = O=C(O)CN1CCN(CC(=O)O)CCN(CC(=O)*)CCN(CC(=O)O)CC1; Phe(4-NHCONH2) = NC(=O)Nc1ccc(C[C@H](N)C(=O)O)cc1; Phe(4-COOH) = N[C@@H](Cc1ccc(C(=O)O)cc1)C(=O)O; Trp(5-F) = N[C@@H](Cc1c[nH]c2ccc(F)cc12)C(=O)O; X1 = C[C@@H](c1ccccc1)[C@H](N[*:1])C(=O)[*:2]; Ala(4-THP) = N[C@@H](CC1CCOCC1)C(=O)O; Val(3-OH) = CC(C)(O)[C@H](N)C(=O)O; 4Pal = N[C@@H](Cc1ccncc1)C(=O)O; Cha = N[C@@H](CC1CCCCC1)C(=O)O; pGlu = O=C1CC[C@@H](C(=O)O)N1; PEG4 = NCCOCCOCCOCCOCCC(=O)O; Tle = CC(C)(C)[C@H](N)C(=O)O; hLeu = CC(C)CC[C@H](N)C(=O)O; NMeS = CN[C@@H](CO)C(=O)O; Nle = CCCC[C@H](N)C(=O)O

Molecular target: T1, human 4lg B7-H3 (Homo sapiens, UniProt Q5ZPR3)
T1 sequence (Q5ZPR3 29-534): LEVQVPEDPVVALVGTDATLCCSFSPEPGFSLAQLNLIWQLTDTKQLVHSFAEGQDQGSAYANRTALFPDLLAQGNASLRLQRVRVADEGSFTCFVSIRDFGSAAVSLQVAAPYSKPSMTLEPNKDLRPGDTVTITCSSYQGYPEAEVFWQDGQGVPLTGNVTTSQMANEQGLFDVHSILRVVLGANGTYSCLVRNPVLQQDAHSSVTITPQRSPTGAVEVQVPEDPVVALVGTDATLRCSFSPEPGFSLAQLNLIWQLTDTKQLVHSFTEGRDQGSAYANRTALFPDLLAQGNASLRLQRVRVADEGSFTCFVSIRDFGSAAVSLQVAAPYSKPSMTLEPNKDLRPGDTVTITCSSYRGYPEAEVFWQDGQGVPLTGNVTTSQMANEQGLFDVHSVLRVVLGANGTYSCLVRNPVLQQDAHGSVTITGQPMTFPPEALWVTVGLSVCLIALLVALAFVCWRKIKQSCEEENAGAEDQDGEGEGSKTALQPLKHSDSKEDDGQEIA
Test: Affinity determination by surface plasmon resonance (SPR) to 4Ig B7-H3
Conditions: SPR KD—25° C., 4Ig B7-H3; 25° C. flow cell temperature

SMILES	Kd [nM]
CCCC[C@H](NC(C)=O)C(=O)N[C@@H](Cc1ccc(O)cc1)C(=O)N[C@H]1CSSC[C@@H](C(=O)N[C@@H](Cc2c[nH]c3ccccc23)C(=O)N[C@@H](Cc2ccccc2)C(=O)N[C@H](C(=O)N[C@H](CCCCNC(=O)CN2CCN(CC(=O)O)CCN(CC(=O)O)CCN(CC(=O)O)CC2)C(N)=O)[C@@H](C)O)NC(=O)[C@H](Cc2ccc(O)cc2)NC(=O)[C@H](C(C)C)NC(=O)[C@H](CC(=O)O)NC(=O)[C@H](Cc2ccc(O)cc2)NC(=O)[C@H](CCCCN)NC(=O)CNC(=O)[C@H](C(C)(C)C)NC1=O [compound 61, Ac-Nle-Y-C-Tbg-G-K-Y-D-V-Y-C-W-F-Thr-dLys(DOTA)-CONH2] (Ac-[Nle]YC[Tle]GKYDVYCWFT[dK](DOTA)-NH2; disulfide 3-11)	1 to 10
CC(=O)N[C@@H](CCC(C)C)C(=O)N[C@@H](Cc1ccc(O)cc1)C(=O)N[C@H]1CSSC[C@@H](C(=O)N[C@@H](Cc2c[nH]c3ccc(F)cc23)C(=O)N[C@@H](Cc2ccccc2)C(=O)N[C@H](C(=O)N[C@H](CCCCNC(=O)CN2CCN(CC(=O)O)CCN(CC(=O)O)CCN(CC(=O)O)CC2)C(N)=O)[C@@H](C)O)NC(=O)[C@H](Cc2ccc(O)cc2)NC(=O)[C@H](C(C)C)NC(=O)[C@H](CC(=O)O)NC(=O)[C@H](Cc2ccncc2)NC(=O)[C@H](CCCCN)NC(=O)CNC(=O)[C@H](C(C)C)NC1=O [compound 240, Ac-hLeu-Y-C-V-G-K-4PyA-D-V-Y-C-5FW-F-Thr-dLys(DOTA)-CONH2] (Ac-[hLeu]YCVGK[4Pal]DVYC[Trp(5-F)]FT[dK](DOTA)-NH2; disulfide 3-11)	< 1
CC(=O)N[C@@H](CCC(C)C)C(=O)N[C@@H](Cc1ccc(O)cc1)C(=O)N[C@H]1CSSC[C@@H](C(=O)N[C@@H](Cc2c[nH]c3ccc(F)cc23)C(=O)N[C@@H](Cc2ccccc2)C(=O)N[C@H](C(=O)N[C@H](CCCCNC(=O)CN2CCN(CC(=O)O)CCN(CC(=O)O)CCN(CC(=O)O)CC2)C(N)=O)[C@@H](C)O)NC(=O)[C@H](Cc2ccc(O)cc2)NC(=O)[C@H](C(C)C)NC(=O)[C@H](CC(=O)O)NC(=O)[C@H]([C@@H](C)O)NC(=O)[C@H](CCCCN)NC(=O)CNC(=O)[C@H](C(C)C)NC1=O [compound 198, Ac-hLeu-Y-C-V-G-K-T-D-V-Y-C-5FW-F-Thr-dLys(DOTA)-CONH2] (Ac-[hLeu]YCVGKTDVYC[Trp(5-F)]FT[dK](DOTA)-NH2; disulfide 3-11)	1 to 10
CC(=O)N[C@@H](CCC(C)C)C(=O)N[C@@H](Cc1ccc(O)cc1)C(=O)N[C@H]1CSSC[C@@H](C(=O)N[C@@H](Cc2c[nH]c3ccc(F)cc23)C(=O)N[C@@H](Cc2ccccc2)C(=O)N(C)[C@@H](CO)C(=O)N[C@H](CCCCNC(=O)CN2CCN(CC(=O)O)CCN(CC(=O)O)CCN(CC(=O)O)CC2)C(N)=O)NC(=O)[C@H](Cc2ccc(O)cc2)NC(=O)[C@H](C(C)C)NC(=O)[C@H](CC(=O)O)NC(=O)[C@H](CC2CCCCC2)NC(=O)[C@H](CC2CCNCC2)NC(=O)CNC(=O)[C@H](C(C)C)NC1=O [compound 236, Ac-hLeu-Y-C-V-G-PipAla-CHA-D-V-Y-C-5FW-F-NMeSer-dLys(DOTA)-CONH2] (Ac-[hLeu]YCVG[Ala(piperidin-4-yl)][Cha]DVYC[Trp(5-F)]F[NMeS][dK](DOTA)-NH2; disulfide 3-11)	< 1
CC(=O)N[C@@H](CCC(C)C)C(=O)N[C@@H](Cc1ccc(O)cc1)C(=O)N[C@H]1CSSC[C@@H](C(=O)N[C@@H](Cc2c[nH]c3ccccc23)C(=O)N[C@@H](Cc2ccccc2)C(=O)N[C@H](C(=O)N[C@H](CCCCNC(=O)CN2CCN(CC(=O)O)CCN(CC(=O)O)CCN(CC(=O)O)CC2)C(N)=O)[C@@H](C)O)NC(=O)[C@H](Cc2ccc(O)cc2)NC(=O)[C@H](C(C)C)NC(=O)[C@H](CC(=O)O)NC(=O)[C@H](Cc2ccc(C(=O)O)cc2)NC(=O)[C@H](CCCCN)NC(=O)CNC(=O)[C@H](C(C)(C)C)NC1=O [compound 139, Ac-hLeu-Y-C-Tbg-G-K-4COOHPhe-D-V-Y-C-W-F-Thr-dLys(DOTA)-CONH2] (Ac-[hLeu]YC[Tle]GK[Phe(4-COOH)]DVYCWFT[dK](DOTA)-NH2; disulfide 3-11)	< 1

Same assay, conditions: SPR KD—37° C., 4Ig B7-H3; 37° C. flow cell temperature

SMILES	Kd [nM]
CC(C)CC[C@H](NC(=O)[C@@H]1CCC(=O)N1)C(=O)N[C@@H](Cc1ccc(O)cc1)C(=O)N[C@H]1CSSC[C@@H](C(=O)N[C@@H](Cc2c[nH]c3ccc(F)cc23)C(=O)N[C@H](C(=O)N[C@H](C(=O)N[C@H](CCCCNC(=O)CN2CCN(CC(=O)O)CCN(CC(=O)O)CCN(CC(=O)O)CC2)C(=O)O)C(C)(C)O)[C@@H](C)c2ccccc2)NC(=O)[C@H](Cc2ccc(O)cc2)NC(=O)[C@H](C(C)C)NC(=O)[C@H](CC(=O)O)NC(=O)[C@H](CC2CCOCC2)NC(=O)[C@H](CC2CCNCC2)NC(=O)CNC(=O)[C@H](C(C)(C)C)NC1=O [compound 507, Pyroglutamate-hLeu-Y-C-Tbg-G-PipAla-ThpA-D-V-Y-C-5FW-[(2S, 3S)beta-Me-Phe]-hydroxyVal-dLys(DOTA)-COOH] ([pGlu][hLeu]YC[Tle]G[Ala(piperidin-4-yl)][Ala(4-THP)]DVYC[Trp(5-F)][X1][Val(3-OH)][dK](DOTA)-OH; disulfide 4-12)	< 1
CC(=O)NCCOCCOCCOCCOCCC(=O)N1CCC(C[C@@H]2NC(=O)[C@H](CC3CCNCC3)NC(=O)CNC(=O)[C@H](C(C)(C)C)NC(=O)[C@@H](NC(=O)[C@H](Cc3ccc(O)cc3)NC(=O)[C@H](CCC(C)C)NC(C)=O)CSSC[C@@H](C(=O)N[C@@H](Cc3c[nH]c4ccc(F)cc34)C(=O)N[C@H](C(=O)N[C@H](C(=O)N[C@H](CCCCNC(=O)CN3CCN(CC(=O)O)CCN(CC(=O)O)CCN(CC(=O)O)CC3)C(=O)O)C(C)(C)O)[C@@H](C)c3ccccc3)NC(=O)[C@H](Cc3ccc(O)cc3)NC(=O)[C@H](C(C)C)NC(=O)[C@H](CC(=O)O)NC2=O)CC1 [compound 515, Ac-hLeu-Y-C-Tbg-G-PipAla-Pip(PEG4-Ac)Ala-D-V-Y-C-5FW-[(2S, 3S)beta-Me-Phe]-hydroxyVal-dLys(DOTA)-COOH] (Ac-[hLeu]YC[Tle]G[Ala(piperidin-4-yl)][Ala(piperidin-4-yl)]([PEG4-Ac])DVYC[Trp(5-F)][X1][Val(3-OH)][dK](DOTA)-OH; disulfide 3-11)	< 1
CC(=O)N[C@@H](CCC(C)C)C(=O)N[C@@H](Cc1ccc(O)cc1)C(=O)N[C@H]1CSSC[C@@H](C(=O)N[C@@H](Cc2c[nH]c3ccc(F)cc23)C(=O)N[C@H](C(=O)N[C@H](C(=O)N[C@H](CCCCNC(=O)CCOCCOCCOCCOCCNC(=O)CN2CCN(CC(=O)O)CCN(CC(=O)O)CCN(CC(=O)O)CC2)C(=O)O)C(C)(C)O)[C@@H](C)c2ccccc2)NC(=O)[C@H](Cc2ccc(NC(N)=O)cc2)NC(=O)[C@H](C(C)C)NC(=O)[C@H](CC(=O)O)NC(=O)[C@H](CC2CCOCC2)NC(=O)[C@H](CC2CCNCC2)NC(=O)CNC(=O)[C@H](C(C)(C)C)NC1=O [compound 500, Ac-hLeu-Y-C-Tbg-G-PipAla-ThpA-D-V-Aph(Cbm)-C-5FW-[(2S, 3S)beta-Me-Phe]-hydroxyVal-dLys(PEG4-DOTA)-COOH] (Ac-[hLeu]YC[Tle]G[Ala(piperidin-4-yl)][Ala(4-THP)]DV[Phe(4-NHCONH2)]C[Trp(5-F)][X1][Val(3-OH)][dK]([PEG4-DOTA])-OH; disulfide 3-11)	< 1
